Laboratory results: patent publication US7226941B2, “Compound for treating angiogenesis” (HIF Bio, Inc., priority 2003, dated 2007)

What was measured:
Format in all cases: cell-based, human
HIF-2α = assay: Immunoblotting of HIF-2α protein in hypoxic Hep3B cells; details: for inhibition of HIF-2α: hypoxia (1% O2) 18 hours, immunoblot
Description: Hep3B hepatoma cells are cultured in α-modified Eagle's medium supplemented with 10% […] fetal bovine serum, 100 units/ml penicillin, and 100 μg/ml streptomycin in a humidified atmosphere containing 5% CO2 at 37° C. Oxygen tension in the incubator is held at either 140 mm Hg (20% O2, v/v, normoxia) or 7 mm Hg (1% O2, v/v, hypoxia). After 24 hour stabilization under normoxic conditions, cells are incubated under normoxic or hypoxic conditions for 18 hours in the presence or in the absence of compounds of the invention. For the immunoblotting of HIF-1α or HIF-2α in cultured cells, 20 μg of extracted proteins are separated on 6.5% SDS/polyacrylamide gels, and then transferred to an Immobilon-P membrane (Millipore). Immobilized proteins are incubated overnight at 4° C. with rat anti-HIF-1α(Chun et al., J Cell Sci 2001 114:4051-4061) or anti-HIF-2α(Novus Biologicals, Littleton, Colo.), diluted 1:5000 in 5% nonfat milk in TBS/0.1% Tween-20 (TTBS). Horseradish peroxidase-conjugated anti-rat antiserum is used as a secondary antibody and the complexes are visualized using an Enhanced Chemiluminescence Plus Kit (Amersham Pharmacia Biotec).
To induce HIF-1α and HIF-2α proteins, Hep3B cells were incubated in a hypoxic chamber (1% oxygen tension) for 16 hours. […] The amounts of HIF proteins were measured by Western blotting method.

Hep3B cells [1] = assay: TUNEL assay of apoptosis
Description: (§1) The activity of caspase-3 was represented in nmoles of p-nitroaniline released per min and per ml of cellular extract. Bars represent the mean of three separate experiments with the upper 95% confidence interval. *: p<0.05 vs. the control. […] PARP cleavage was analysed by immunoblotting with a mouse anti-PARP antibody. Proteins were visualized by Enhanced Chemiluminescence Plus. The lane C is the control. […] PARP is essential for DNA-replication in the S-phase and its absence leads to apoptosis.
(§2) Referring to FIG. 3a, the caspase-3 activity increased over time to about 5 times the activity in the control after 72 h. […] Inactivation of PARP leads to cell apoptosis. PARP protein was analyzed using Western blotting with anti-PARP antibody (BIOMOL Research Laboratories, Inc), diluted 1:5000. […] For quantification of apoptosis at single cell level, based on labeling of DNA strand breaks, Terminal deoxynucleotidyl Transferase-mediated dUTP Nick End Labeling (TUNEL) assay was performed according to the manufacturer's protocol (In Situ Cell Death Detection Kit; TMR Red; Roche Diagnostics GmbH, Mannheim, Germany). It is a method for detecting the 3′—OH ends of DNA exposed during the internucleosomal cleavage that occurs during apoptosis. Incorporation of fluorescein-dUTP allows detection by FACS. […]

Hep3B hepatoma cells = assay: Cell cycle analysis by FACS (propidium iodide DNA content)
Description: FIG. 1a is the FACS data to analyze the cell distribution based on DNA content. […] The cell cycle analysis was performed using a Becton Dickinson FACStar flow cytometer. Cells (1-2×10^6) were plated in 10 cm culture dishes at concentrations determined to yield 70-80% confluence within 24 h. Cells were treated with DMSO or YC-1 and incubated for described time. After incubation, both adherent and floating cells were harvested, washed with 3 ml PBS and resuspended with 200 μl PBS, fixed in 75% ethanol for 30 min on ice. After washing with PBS, cells were labeled with propidium iodide (0.05 mg/ml) in the presence of RNase A (0.5 mg/ml), incubated at room temperature in the dark for 30 min. DNA content was then analyzed using FACStar flow cytometer, and then excited with an argon, water-cooled laser emitting at 488 nm. Propidium iodide was detected using a 630±20 nm band pass filter.
The compounds induce cell cycle arrest as shown in Hep3B liver tumor cells. After application of 1 μM into cultures of Hep3B cells, typically in 48 hours, 28% of the cells were in the G0/G1 phases, 15% in the G2/M phases, 57% in the S phase, and a small percentage were characterized as being in the sub-G1 phase. In the control, typically 60% of the cells were in the G0/G1 phases, 16% in the G2/M phases, and […] in the S-phase.

Hep3B cells [2] = assay: Cell viability by MTT assay; details: 0.5, 1, or 2 μM for 24, 48, or 72 h (FIG. 2)
Description: The percentages of viable cells were measured by MTT assay. […] Bars represent the mean of three separate experiments with the upper 95% confidence interval. *: p<0.05 vs. the control.
Compounds of Formula I or II can be evaluated for efficacy using the methods described above. In addition, compounds of the invention have efficacy in a cell viability assay using human cancer cells. The cells are treated with a compound of Formula I or II (at concentrations ranging from 0.5-2 μM) and buffer. Cellular viability is measured at 24, 48, and 72 hours. Treatment with the compound results in a notable decrease in cell viability.
The percentage of viable cells was measured by MTT assay. Cells were plated in 12 well plates. […] Resulting insoluble formazan was dissolved with 0.04 N HCl in isopropanol. Absorbance of purple color of formazan was measured at 570 nm with a spectrophotometer.

PARP = PARP cleavage by immunoblotting; details: 1, 2 μM for 90 h, Hep3B (FIG. 3b)
Description: as §1, §2

HIF = HIF activity assay (EPO enhancer luciferase reporter); details: Hep3B, 16 h at 1% O2 (FIGS. 4a-4i)
Description: The synthetic DNA coding the HIF-binding enhancer region of the EPO gene, 5-[…] ATCT-3 (SEQ. ID NO. 1), was inserted into the pGL3 promoter plasmid (Promega). To assay the HIF activity, Hep3B cells were cotransfected with the luciferase reporter gene and the plasmid cytomegalovirus-β-gal, using the calcium phosphate method. Transfected cells were split into nine aliquots and incubated for 42 h. After stabilizing, the cells were incubated for 16 h at 20% or 1% O2. They were then lysed and assayed for luciferase activity using a Biocounter M1500 luminometer (Lumac). β-gal assays were performed for normalization of transfection.

HIF-1α = assay: Immunoblotting of HIF-1α protein in hypoxic Hep3B cells; details: hypoxia (1% O2) 18 hours, immunoblot
Description: Hep3B hepatoma cells are cultured in α-modified Eagle's medium supplemented with 10% heat-activated fetal bovine serum, 100 units/ml penicillin, and 100 μg/ml streptomycin in a humidified atmosphere containing 5% CO2 at 37° C. Oxygen tension in the incubator is held at either 140 mm Hg (20% O2, v/v, normoxia) or 7 mm Hg (1% O2, v/v, hypoxia). After 24 hour stabilization under normoxic conditions, cells are incubated under normoxic or hypoxic conditions for 18 hours in the presence or in the absence of compounds of the invention. For the immunoblotting of HIF-1α or HIF-2α in cultured cells, 20 μg of extracted proteins are separated on 6.5% SDS/polyacrylamide gels, and then transferred to an Immobilon-P membrane (Millipore). Immobilized proteins are incubated overnight at 4° C. with rat anti-HIF-1α(Chun et al., J Cell Sci 2001 114:4051-4061) or anti-HIF-2α(Novus Biologicals, Littleton, Colo.), diluted 1:5000 in 5% nonfat milk in TBS/0.1% Tween-20 (TTBS). Horseradish peroxidase-conjugated anti-rat antiserum is used as a secondary antibody and the complexes are visualized using an Enhanced Chemiluminescence Plus Kit (Amersham Pharmacia Biotec).

SMILES	expression of HIF-2α protein (HIF-2α; 1% oxygen 16 hours, 0.3 to 10 μg/ml, Western blotting (FIGS. 4a-4i))	percentage of TUNEL-positive cells (Hep3B cells [1]; 1, 2 μM for 90 h, Hep3B (FIG. 3c))	percentage of TUNEL-positive cells with caspase-3 inhibitor (Hep3B cells [1]; caspase-3 inhibitor Ac-DEVD-CHO pre-treated 1 h before YC-1)	percentage of cells in the S-phase over time (FIG. 1) (Hep3B hepatoma cells; Hep3B cells, time after application)	dose dependence of the cell cycle (S-phase) arrest (Hep3B hepatoma cells; Hep3B cultures)	effect on cell cycle (FIG. 1) (Hep3B hepatoma cells; Hep3B hepatoma cells)	cell viability (Hep3B cells [2])	amount of the 89 kDa fragment of PARP (PARP)	HIF activity (luciferase reporter) (HIF)	inhibition of HIF-1α (HIF-1α)	inhibition of HIF-2α (HIF-2α)
OCc1ccc(-c2nn(Cc3ccccc3)c3ccccc23)o1 [YC-1, 3-(5′-hydroxymethyl-2′-furyl)-1-benzylindazole]	effectively reduced	increased dose-dependently	decreased significantly	steadily increased with time after application	dose dependent up to 5 μM	S-phase arrest	decreased by YC-1, dose-dependently and time-dependently	increased when the YC-1 dose was doubled	effectively reduced		
CC(C)n1nc(-c2ccc(CO)o2)c2ccccc21 [{5-[1-(prop-2-yl)-1H-indazol-3-yl]-furan-2-yl}-methanol]										strong inhibitors	strong inhibitors
OCc1ccc(-n2cnc3ccccc32)o1 [{5-[1H-benzimidazol-1-yl]-furan-2-yl}-methanol]										strong inhibitors	strong inhibitors
